Here are results for three compounds from ChEMBL document CHEMBL1154348, “Arginine-pyrimidine conjugates with therapeutic and prophylactic activity in lethal bacterial infections” (Bioorg Med Chem Lett, 2009).

Series [1] is described as follows: Therapeutic efficacy against Escherichia coli infected lethal mouse sepsis model assessed as survival at 30 mg/kg, ip administered 0.5 hrs and 4 hrs post infection. To be noted: in vivo. On the set-up: dose 30 mg/kg, route intraperitoneal. The class given is organism-based.
Series [2] can be described thus: Therapeutic efficacy against Staphylococcus aureus infected lethal mouse sepsis model assessed as survival at 30 mg/kg, ip administered 0.5 hrs and 4 hrs post infection. Format: organism-based. Also on record: dose 30 mg/kg, route intraperitoneal. As to conditions: in vivo.
A short description of series [3]: Half life in mouse at 100 mg/kg, ip after 30 mins. As to conditions: in vivo. The class given is ADME, organism-based. On the set-up: dose 100 mg/kg, route intraperitoneal.
For series [4], the system named is Mus musculus. In words: Acute toxicity in mouse up to 450 mg/kg, ip after 5 days. The class given is organism-based. On the set-up: dose 450 mg/kg, route intraperitoneal. As to conditions: in vivo, 120 h.
Series [5] concerns Escherichia coli. In words: Prophylactic efficacy against Escherichia coli infected lethal mouse sepsis model assessed as survival at 50 mg/kg, ip administered 1 hr before infection. To be noted: route intraperitoneal. The class given is functional.
Series [6] can be described thus: Cmax in mouse at 100 mg/kg, ip after 30 mins. Format: ADME, organism-based. Also on record: dose 100 mg/kg, route intraperitoneal. To be noted: in vivo.
The test system of series [7] is Mus musculus. In words: Subchronic toxicity in mouse up to 450 mg/kg, ip after 5 days. Format: organism-based. Also on record: dose 450 mg/kg, route intraperitoneal. As to conditions: in vivo, 120 h.
For series [8], the system named is Escherichia coli. Put plainly: Prophylactic efficacy against Escherichia coli infected lethal mouse sepsis model assessed as survival at 50 mg/kg, ip administered 3 hrs before infection. The class given is functional. To be noted: route intraperitoneal.
Series [9] concerns Staphylococcus aureus. In words: Antibacterial activity against Staphylococcus aureus. The class given is functional.
The test system of series [10] is Streptococcus pyogenes. Put plainly: Antibacterial activity against Streptococcus pyogenes infected in cyclophosphamide-treated immunocompromized mouse assessed as inhibition of muscle infection. The class given is functional, organism-based. To be noted: Muscle tissue.
Series [11] has as its system Escherichia coli. In words: Antibacterial activity against Escherichia coli. The class given is functional.
Series [12] deals with Pseudomonas aeruginosa. In words: Antibacterial activity against Pseudomonas aeruginosa infected in cyclophosphamide-treated immunocompromized mouse assessed as inhibition of wound infection. Format: functional, organism-based.
For series [13], the system named is Escherichia coli. In words: Antibacterial activity against Escherichia coli infected lethal mouse sepsis model assessed as reduction in bacterial load in mouse blood at 50 mg/kg, ip administered 0.5 hrs and 4 hrs post infection measured after 5 hrs. The class given is functional. To be noted: route intraperitoneal.
The subject of series [14] is Plasma. Put plainly: Stability in mouse plasma after 3 hrs. The class given is ADME, cell-free.
Series [15] relates to Escherichia coli. In words: Prophylactic efficacy against Escherichia coli infected lethal mouse sepsis model assessed as survival at 50 mg/kg, ip administered 0.5 hrs before infection. Format: functional. To be noted: route intraperitoneal.
Series [16] deals with Escherichia coli. In words: Antibacterial activity against Escherichia coli infected lethal mouse sepsis model assessed as reduction in bacterial load in mouse blood at 50 mg/kg, ip administered as single dose 0.5 hrs post infection measured after 5 hrs. Format: functional. As to conditions: route intraperitoneal.
Series [17] relates to Escherichia coli. In words: Prophylactic efficacy against Escherichia coli infected lethal mouse sepsis model assessed as survival at 50 mg/kg, ip administered 2 hrs before infection. Format: functional. As to conditions: route intraperitoneal.

SMILES strings stand for the structures. Active and inactive are the calls of the source. The rule behind the calls is not given here. Some results are limits rather than exact numbers.

For `O=C(O)c1cn(C2CC2)c2cc(N3CCNCC3)c(F)cc2c1=O` [CIPROFLOXACIN], the Efficacy came out at 60% in series [1] and 40% in series [2].
Turning to `CN(CCCN(C)c1ncccn1)C(=O)[C@@H](N)CCCNC(=N)N`, the half-life in series [3] was 1 h. For the same compound, the Activity result in series [4] and in [7] was “Non-toxic” in each case. In addition, the Efficacy is recorded as 80% in [5]; 40% in series [8]; 80% in [1]; 80% in [15]; 60% in [17]; 60% in series [2]. Further, in [6], the Cmax is 56 µg/mL. In addition, the MIC in [9] and in series [11] was above 250 µg/mL in each case. For the same compound, the result in series [10] and in [12] was inactive. In addition, the CFU in series [13] was determined as 3.7 ×10² /ml; in series [16], 2.7 ×10³ /ml. Further, the Stability result in series [14] is given as “Stable”.
Regarding `CN(CCCNC(=O)[C@@H](N)CCCNC(=N)N)c1ncccn1`, the Efficacy in [1] and in series [2] was 40% in each case.
